Source: US4560509A, “Antibiotic A39079 factor S-1” (Eli Lilly and Company, priority 1983, dated 1985)
Converted amounts (≈) assume the structure as drawn.

Key:
Enterobacter cloacae EB5 = assay: standard agar-dilution MIC assay; type: cell-based; conditions: agar dilution; Enterobacter cloacae EB5; read-out: MIC
Description: (§1) Table V summarizes the minimal inhibitory concentrations (MIC) at which factor S-1 inhibits certain organisms as determined by standard agar-dilution assays. In Table V, the activity of factor S-1 is compared with that of rifampin.

Escherichia coli N10 = assay: standard agar-dilution MIC assay; type: cell-based
Description: as §1

[1] = test system: Haemophilus influenzae 76; assay: standard agar-dilution MIC assay; type: cell-based
Description: as §1

[2] = test system: Haemophilus influenzae C.L.; assay: standard agar-dilution MIC assay; type: cell-based
Description: as §1

[3] = test system: Klebsiella pneumoniae KAE; assay: standard agar-dilution MIC assay; type: cell-based; conditions: agar dilution; Klebsiella pneumoniae KAE; read-out: MIC
Description: as §1

[4] = test system: Klebsiella pneumoniae X26; assay: standard agar-dilution MIC assay; type: cell-based; conditions: agar dilution; Klebsiella pneumoniae X26; read-out: MIC
Description: as §1

Proteus inconstans PR33 = assay: standard agar-dilution MIC assay; type: cell-based; conditions: Providencia alcalifaciens; agar dilution; Proteus inconstans PR33; read-out: MIC
Description: as §1

Proteus rettgeri C24 = assay: standard agar-dilution MIC assay; type: cell-based; conditions: Providencia rettgeri; agar dilution; Proteus rettgeri C24; read-out: MIC
Description: as §1

[5] = test system: Pseudomonas aeruginosa Ps18; assay: standard agar-dilution MIC assay; type: cell-based
Description: as §1

Salmonella typhi 1335 = assay: standard agar-dilution MIC assay; type: cell-based; conditions: Salmonella enterica
Description: as §1

Serratia marcescens SE3 = assay: standard agar-dilution MIC assay; type: cell-based; conditions: agar dilution; Serratia marcescens SE3; read-out: MIC
Description: as §1

Serratia marcescens X99 = assay: standard agar-dilution MIC assay; type: cell-based; conditions: agar dilution; Serratia marcescens X99; read-out: MIC
Description: as §1

Shigella sonnei N9 = assay: standard agar-dilution MIC assay; type: cell-based
Description: as §1

[6] = test system: Staphylococcus aureus NRRL B313; assay: standard agar-dilution MIC assay; type: cell-based; conditions: NRRLB313; agar dilution; Staphylococcus aureus NRRL B313; read-out: MIC
Description: as §1

[7] = test system: Staphylococcus aureus S13E; assay: standard agar-dilution MIC assay; type: cell-based
Description: as §1

[8] = test system: Staphylococcus aureus V41; assay: standard agar-dilution MIC assay; type: cell-based; conditions: agar dilution; Staphylococcus aureus V41; read-out: MIC
Description: as §1

[9] = test system: Staphylococcus aureus X400; assay: standard agar-dilution MIC assay; type: cell-based; conditions: agar dilution; Staphylococcus aureus X400; read-out: MIC
Description: as §1

[10] = test system: Streptococcus pneumoniae Park 1; assay: standard agar-dilution MIC assay; type: cell-based; conditions: PARK1; agar dilution; Streptococcus pneumoniae Park 1; read-out: MIC
Description: as §1

[11] = test system: Streptococcus sp. group D 9960; assay: standard agar-dilution MIC assay; type: cell-based; conditions: agar dilution; Streptococcus sp. group D 9960; read-out: MIC
Description: as §1

solubility = type: physicochemical
[12] = stability in aqueous methanol solutions; type: physicochemical
Method: (7) Stability: Stability studies on factor S-1 in aqueous methanol solutions were run at pH levels of 2,5,7 and 9 and at temperatures of 4° C., 25° C., and 37° C.

SMILES: CC(=O)OC1C(C)C(O)C=COC2(C)Oc3c(C)c(O)c4c(c3C2=O)C(=O)C(C)=C(NC(=O)C=CC=CC(C)C(O)C(C)C(O)C1C)C4=O (centres unmarked) [Factor S-1]
- MIC (Enterobacter cloacae EB5): 32 µg/mL (≈ 46.9 µM)
- MIC (Escherichia coli N10): 8 µg/mL (≈ 11.7 µM)
- MIC [1]: 0.125 µg/mL (≈ 0.183 µM)
- MIC [2]: 0.25 µg/mL (≈ 0.367 µM)
- MIC [3]: 16 µg/mL (≈ 23.5 µM)
- MIC [4]: 32 µg/mL (≈ 46.9 µM)
- MIC (Proteus inconstans PR33): 8 µg/mL (≈ 11.7 µM)
- MIC (Proteus rettgeri C24): 2 µg/mL (≈ 2.93 µM)
- MIC [5]: > 128 µg/mL
- MIC (Salmonella typhi 1335): 32 µg/mL (≈ 46.9 µM)
- MIC (Serratia marcescens SE3): 16 µg/mL (≈ 23.5 µM)
- MIC (Serratia marcescens X99): 32 µg/mL (≈ 46.9 µM)
- MIC (Shigella sonnei N9): 8 µg/mL (≈ 11.7 µM)
- MIC [6]: 0.015 µg/mL (≈ 0.022 µM)
- MIC [7]: 0.015 µg/mL (≈ 0.022 µM)
- MIC [8]: 0.015 µg/mL (≈ 0.022 µM)
- MIC [9]: 0.06 µg/mL (≈ 0.088 µM)
- MIC [10]: < 0.008 µg/mL
- MIC [11]: 1 µg/mL (≈ 1.47 µM)
- solubility (solubility; solvents such as methanol, acetonitrile and acetone): soluble
- solubility (solubility; water): only slightly soluble
- stability versus temperature ([12]; 4° C., 25° C. and 37° C.): most stable at 4° C., less stable at 25° C., and least stable at 37 °C
- stability versus pH ([12]; pH 2, 5, 7 and 9): more stable in slightly acidic, neutral and basic solutions than in strongly acidic solutions (pH=2)
